Test results: PubChem BioAssay AID1918999 (Molecular Pharmacology Branch, DTP, NCI, 2023)

System: 556581-035-R-J1-PDC complex spheroid growth
Test: Anticancer human tumor 556581-035-R-J1-PDC patient-derived ovarian carcinoma cell line growth inhibition [AhR]
Settings: for IC50: curve of first compound; for viability, T/C: stronger effect = lower value
Outline: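 Complex tumor spheroids co-cultured with HUVEC and human MSC stroma; AhR antagonists tested in combination with standard-of-care and investigational agents. Top concentration at or near clinical Cmax (else 10 microM), half-log dilutions; growth expressed as percent test/control.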

[1] = second compound 0.1 µM, first compound 0.0316 µM
[2] = second compound 0.1 µM, first compound 0.1 µM
[3] = second compound 0.1 µM, first compound 0.316 µM
[4] = second compound 0.1 µM, first compound 1 µM
[5] = second compound 0.1 µM, first compound 3.16 µM
[6] = second compound 0.1 µM, first compound 10 µM
[7] = second compound 0.316 µM, first compound 0.0316 µM
[8] = second compound 0.316 µM, first compound 0.1 µM
[9] = second compound 0.316 µM, first compound 0.316 µM
[10] = second compound 0.316 µM, first compound 1 µM
[11] = second compound 0.316 µM, first compound 3.16 µM
[12] = second compound 0.316 µM, first compound 10 µM
[13] = second compound 1 µM, first compound 0.0316 µM
[14] = second compound 1 µM, first compound 0.1 µM
[15] = second compound 1 µM, first compound 0.316 µM
[16] = second compound 1 µM, first compound 1 µM
[17] = second compound 1 µM, first compound 3.16 µM
[18] = second compound 1 µM, first compound 10 µM
[19] = second compound 3.16 µM, first compound 0.0316 µM
[20] = second compound 3.16 µM, first compound 0.1 µM
[21] = second compound 3.16 µM, first compound 0.316 µM
[22] = second compound 3.16 µM, first compound 1 µM
[23] = second compound 3.16 µM, first compound 3.16 µM
[24] = second compound 3.16 µM, first compound 10 µM
[25] = second compound 10 µM, first compound 0.0316 µM
[26] = second compound 10 µM, first compound 0.1 µM
[27] = second compound 10 µM, first compound 0.316 µM
[28] = second compound 10 µM, first compound 1 µM
[29] = second compound 10 µM, first compound 3.16 µM
[30] = second compound 10 µM, first compound 10 µM
[31] = second compound 0.1 µM, first compound 0.00316 µM
[32] = second compound 0.1 µM, first compound 0.01 µM
[33] = second compound 0.316 µM, first compound 0.00316 µM
[34] = second compound 0.316 µM, first compound 0.01 µM
[35] = second compound 1 µM, first compound 0.00316 µM
[36] = second compound 1 µM, first compound 0.01 µM
[37] = second compound 3.16 µM, first compound 0.00316 µM
[38] = second compound 3.16 µM, first compound 0.01 µM
[39] = second compound 10 µM, first compound 0.00316 µM
[40] = second compound 10 µM, first compound 0.01 µM
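Throughout, for viability, T/C: compound exposure lasted 7 days; 100% = DMSO vehicle control growth.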

With `CC(C)c1c(-c2ccccc2)nc2c(C#N)c[nH]n2c1=O` + Cc1ccccc1N=Nc1ccc(NC(=O)c2ccnn2C)c(C)c1 the IC50 (second compound 0.1 µM) was > 10000 nM, the IC50 (second compound 0.316 µM) was > 10000 nM and the IC50 (second compound 1 µM) was > 10000 nM. For the same compound, the IC50 (second compound 3.16 µM) was > 10000 nM, the IC50 (second compound 10 µM) was > 10000 nM and the viability, T/C [1] was 106%. It also gave a viability, T/C [2] of 111%, a viability, T/C [3] of 103% and a viability, T/C [4] of 104%. The viability, T/C [5] was 97.7%, the viability, T/C [6] was 93.4% and the viability, T/C [7] was 96.7%. The viability, T/C [8] was 94.1%, the viability, T/C [9] was 107% and the viability, T/C [10] was 96.1%. It also gave a viability, T/C [11] of 85.5%, a viability, T/C [12] of 103% and a viability, T/C [13] of 110%. It also gave a viability, T/C [14] of 108%, a viability, T/C [15] of 96% and a viability, T/C [16] of 106%. It also gave a viability, T/C [17] of 106%, a viability, T/C [18] of 95.8% and a viability, T/C [19] of 95.6%. The viability, T/C [20] was 92.2%, the viability, T/C [21] was 104% and the viability, T/C [22] was 83.6%. For the same compound, the viability, T/C [23] was 96%, the viability, T/C [24] was 87.9% and the viability, T/C [25] was 94.7%. It also gave a viability, T/C [26] of 86.8%, a viability, T/C [27] of 80.9% and a viability, T/C [28] of 91.5%. It also gave a viability, T/C [29] of 84.5% and a viability, T/C [30] of 76.9%.
With `CC1COCCN1c1cc(-c2ccnn2C)c2ccnc(-c3ccn[nH]3)c2n1` (stereo not given) + Cc1ccccc1N=Nc1ccc(NC(=O)c2ccnn2C)c(C)c1 the IC50 (second compound 0.1 µM) was 894 nM, the IC50 (second compound 0.316 µM) was > 1000 nM and the IC50 (second compound 1 µM) was > 1000 nM. It also gave an IC50 (second compound 3.16 µM) of 752 nM, an IC50 (second compound 10 µM) of 883 nM and a viability, T/C [31] of 104%. For the same compound, the viability, T/C [32] was 103%, the viability, T/C [1] was 101% and the viability, T/C [2] was 84.8%. It also gave a viability, T/C [3] of 61.5%, a viability, T/C [4] of 48.6% and a viability, T/C [33] of 102%. It also gave a viability, T/C [34] of 119%, a viability, T/C [7] of 101% and a viability, T/C [8] of 76.8%. The viability, T/C [9] was 63.9%, the viability, T/C [10] was 51.8% and the viability, T/C [35] was 99.6%. It also gave a viability, T/C [36] of 108%, a viability, T/C [13] of 99.5% and a viability, T/C [14] of 80%. For the same compound, the viability, T/C [15] was 62.6%, the viability, T/C [16] was 54.9% and the viability, T/C [37] was 105%. The viability, T/C [38] was 103%, the viability, T/C [19] was 94.8% and the viability, T/C [20] was 72.6%. For the same compound, the viability, T/C [21] was 63.8%, the viability, T/C [22] was 45.4% and the viability, T/C [39] was 88.9%. It also gave a viability, T/C [40] of 104%, a viability, T/C [25] of 85.3% and a viability, T/C [26] of 73.3%. The viability, T/C [27] was 61% and the viability, T/C [28] was 47.9%.
In the case of `COc1ccc([C@@H](O)c2cc(-c3ncnc4cc(N5CCOCC5)ccc34)c(F)cc2Cl)nn1` + Cc1ccccc1N=Nc1ccc(NC(=O)c2ccnn2C)c(C)c1, the IC50 (second compound 0.1 µM) is reported as 5520 nM, the IC50 (second compound 0.316 µM) is reported as 4750 nM and the IC50 (second compound 1 µM) is reported as > 10000 nM. The IC50 (second compound 3.16 µM) was 5110 nM, the IC50 (second compound 10 µM) was 4400 nM and the viability, T/C [1] was 107%. The viability, T/C [2] was 104%, the viability, T/C [3] was 102% and the viability, T/C [4] was 78.2%. For the same compound, the viability, T/C [5] was 59.4%, the viability, T/C [6] was 41.3% and the viability, T/C [7] was 104%. The viability, T/C [8] was 97.2%, the viability, T/C [9] was 100% and the viability, T/C [10] was 78%. For the same compound, the viability, T/C [11] was 55.8%, the viability, T/C [12] was 41.2% and the viability, T/C [13] was 112%. It also gave a viability, T/C [14] of 106%, a viability, T/C [15] of 110% and a viability, T/C [16] of 75.5%. It also gave a viability, T/C [17] of 56.4%, a viability, T/C [18] of 47.1% and a viability, T/C [19] of 89.1%. The viability, T/C [20] was 95%, the viability, T/C [21] was 89.1% and the viability, T/C [22] was 74.6%. It also gave a viability, T/C [23] of 56.8%, a viability, T/C [24] of 41.5% and a viability, T/C [25] of 97.8%. It also gave a viability, T/C [26] of 93.4%, a viability, T/C [27] of 87.3% and a viability, T/C [28] of 76.9%. It also gave a viability, T/C [29] of 50.4% and a viability, T/C [30] of 44.8%.
For `COc1cccc2c1C(=O)c1c(O)c3c(c(O)c1C2=O)CC(O)(C(=O)CO)CC3OC1CC(N)C(O)C(C)O1` (stereo not given) + Cc1cncc(-c2nc(NCCc3c[nH]c4ccccc34)c3ncn(C(C)C)c3n2)c1, the IC50 (second compound 0.1 µM) was 382 nM, the IC50 (second compound 0.316 µM) was 380 nM and the IC50 (second compound 1 µM) was 403 nM. For the same compound, the IC50 (second compound 3.16 µM) was 349 nM, the IC50 (second compound 10 µM) was 351 nM and the viability, T/C [1] was 87%. The viability, T/C [2] was 89.8%, the viability, T/C [3] was 58.3% and the viability, T/C [4] was 6.64%. The viability, T/C [5] was 0.94%, the viability, T/C [6] was 1.6% and the viability, T/C [7] was 84.8%. The viability, T/C [8] was 82.5%, the viability, T/C [9] was 58.3% and the viability, T/C [10] was 6.48%. The viability, T/C [11] was 0.61%, the viability, T/C [12] was 2.51% and the viability, T/C [13] was 81.9%. The viability, T/C [14] was 73.8%, the viability, T/C [15] was 62.9% and the viability, T/C [16] was 3.27%. The viability, T/C [17] was 0.86%, the viability, T/C [18] was 2.01% and the viability, T/C [19] was 77.7%. It also gave a viability, T/C [20] of 74.8%, a viability, T/C [21] of 54.4% and a viability, T/C [22] of 2.38%. It also gave a viability, T/C [23] of 1.27%, a viability, T/C [24] of 3.59% and a viability, T/C [25] of 80.8%. For the same compound, the viability, T/C [26] was 68.8%, the viability, T/C [27] was 54.8% and the viability, T/C [28] was 2.24%. It also gave a viability, T/C [29] of 1.87% and a viability, T/C [30] of 3.7%.
`Nc1ncn(C2CC(O)C(CO)O2)c(=O)n1` (stereo not given) + Cc1cncc(-c2nc(NCCc3c[nH]c4ccccc34)c3ncn(C(C)C)c3n2)c1 was tested, and the IC50 (second compound 0.1 µM) was > 1000 nM, the IC50 (second compound 0.316 µM) was > 1000 nM and the IC50 (second compound 1 µM) was > 1000 nM. For the same compound, the IC50 (second compound 3.16 µM) was > 1000 nM, the IC50 (second compound 10 µM) was > 1000 nM and the viability, T/C [31] was 97.2%. The viability, T/C [32] was 95.1%, the viability, T/C [1] was 106% and the viability, T/C [2] was 89%. The viability, T/C [3] was 84.8%, the viability, T/C [4] was 77.4% and the viability, T/C [33] was 102%. It also gave a viability, T/C [34] of 93.6%, a viability, T/C [7] of 90.7% and a viability, T/C [8] of 87%. It also gave a viability, T/C [9] of 93.1%, a viability, T/C [10] of 85.6% and a viability, T/C [35] of 91.4%. For the same compound, the viability, T/C [36] was 105%, the viability, T/C [13] was 104% and the viability, T/C [14] was 110%. The viability, T/C [15] was 92.6%, the viability, T/C [16] was 82.2% and the viability, T/C [37] was 98.2%. For the same compound, the viability, T/C [38] was 95.5%, the viability, T/C [19] was 93.6% and the viability, T/C [20] was 94.7%. For the same compound, the viability, T/C [21] was 88.3%, the viability, T/C [22] was 90.2% and the viability, T/C [39] was 83.7%. The viability, T/C [40] was 78.5%, the viability, T/C [25] was 81.6% and the viability, T/C [26] was 82%. For the same compound, the viability, T/C [27] was 81.8% and the viability, T/C [28] was 83.6%.
